Test system: cutis and subcutis
Test: In vivo clinical studies II, Q-BASE-CREAM, regeneration and repairing of cutis and subcutis
Design: species or system human
Conditions: Case 2, surgical suture dehiscence; before Q-BASE-CREAM
Method: A clinical study was performed, which was designed to assess the therapeutic effectiveness of the product designated as Q-BASE-CREAM in the regeneration and repairing of cutis and subcutis.
During the period comprised from March to May 2007, a mixed group of volunteers consisting of human (two women and one person) and veterinary (two dogs) patients were included in the clinical study.

povidone-iodine
change of the lesion after 7 days of previous local therapy: no changes in the lesion occurred

From patent US20100310544A1, “COMPOSITION COMPRISING CALCIUM IONS AND AT LEAST ONE PROTEOLYTIC ENZYME FOR USE IN THE IN VITRO AND IN VIVO REGENERATION OF CUTANEOUS AND CONNECTIVE TISSUES” (MEDEVICE S.P.A., priority 2007, published 2010)
